In EP0657455A1, “Epi-epibatidine derivatives, a process and intermediates for preparing them and epi-epibatidine and medicaments containing the epi-epibatidine derivatives and/or epi-epibatidine and the use of them” (priority 1993, dated 1995):
Like-named read-outs stand apart in the source and are kept apart here.

Columns and labels:
NMRI male mice = experiment: Hot plate test in mice; assay type: in vivo; conditions: sc
Description: Hot plate test in mice Method
A modification of method of Eddy et al. (1953) Eddy, N. B., Leimback D.: Synthetic analgesics II. Dithienylbutenyl and dithienylbutylamines. J. Pharmacol. Exp. Ther. 107 /1953/, 385 to 393 was used. NMRI male mice (20 to 25 g body weight) were dropped on a hot plate (56.0 ± 0.5°C) and the latency time elapsed until licking the forepaws was measured. The compounds were administered subcutaneously and 15, 30, 45 and 60 minutes later the reaction time was measured again. Animals were regarded as positive if they produced at least twice 2.5-fold reaction time extension as related to their control values.

mice [1] = experiment: Acetic acid induced writhing test in mice; assay type: in vivo
Description: Acetic acid induced writhing test in mice Method
Groups of 12 mice weighing 20 to 25 g were treated with 0.75% (v/v) acetic acid in a volume of 20 ml/kg administered intraperitoneally according to the method of Koster, R., Anderson, M., de Beer, E. J.: Acetic acid for analgesic screening, Fed. Proc. 18 [1959], 412. Between 5 and 10 minutes after the administration of acetic acid the total number of the typical "writhing" reactions was counted and expressed as percent inhibition compared to the concurrent controls. The test compounds were applied subcutaneously partly with a pretreatment period of 30 min. and partly without such. Statistical evaluation was performed by Student's t test and ID₅₀ values were determined by plotting the log-dose versus percentage response as compared to vehicle-treated animals. 10 mg/kg s.c. 17-(allyl)-4,5α-(epoxy)-3,14-di-(hydroxy)-morphinan-6-one {Naloxone} was administered 15 minutes before drug treatment.

mice [2] = conditions: mouse, in vivo, sc, 5 mg/kg
[3] = Mus musculus, hot plate 56.0 ± 0.5°C, subcutaneous, reaction time at 15, 30, 45 and 60 minutes, positive = at least twice 2.5-fold reaction time extension, read-out: ED50

Compound `Clc1ccc([C@H]2C[C@H]3CC[C@@H]2N3)c(Cl)c1` (racemic) [Example 42, (±)-endo-2β-[1',3'-Di-(chloro)-phen-4'-yl]-7α-azabicyclo[2.2.1]heptane] has an ED50 (NMRI male mice; [3]) of 1.8 mg/kg.

`Fc1ccc([C@H]2C[C@H]3CC[C@@H]2N3)cc1` (racemic) [Example 12, (±)-endo-2β-[1'-(Fluoro)-phen-4'-yl]-7α-azabicyclo[2.2.1]heptane] showed an ED50 (NMRI male mice; [3]) of 2.1 mg/kg.

With `CN1CC[C@]23c4c5ccc(O)c4O[C@H]2[C@@H](O)C=C[C@H]3[C@H]1C5.Cl` [Reference substance A, Morphine-HCl] the “ID50 Pretreatment with 10 mg/kg naloxone s.c.” value (“ID50 Pretreatment” below) (mice [1]; mouse, in vivo) was 46.8 mg/kg s.c, the “ID50 Without pretreatment” value (mice [1]; mouse, in vivo) was 0.6 mg/kg s.c and the “increase of ID50 value in antinociception after naloxone pretreatment” value (mice [1]; mouse, in vivo) was “about 80 fold”.

With `COc1ccc2c3c1O[C@H]1[C@@H](O)C=C[C@H]4[C@@H](C2)N(C)CC[C@@]341.Cl` [Reference substance B, Codeine-HCl] the “ID50 Pretreatment” value (mice [1]; 0.75% (v/v) acetic acid i.p., naloxone 10 mg/kg s.c. 15 minutes before drug treatment) was 45.4 mg/kg s.c, the ED50 (mice [1]; Mus musculus, sc, 0.75% (v/v) acetic acid i.p., writhing counted between 5 and 10 minutes, no naloxone, read-out: ID50 Without pretreatment) was 9.9 mg/kg and the “increase of ID50 value in antinociception after naloxone pretreatment” value (mice [1]; naloxone 10 mg/kg s.c. for 15 minutes) was roughly 5 fold. For the same compound, the ED50 (NMRI male mice; [3]) was 9.4 mg/kg.

For `CCOc1ccc([C@H]2C[C@H]3CC[C@@H]2N3)cn1` (racemic) [Example 49, (±)-2β-[6'-(Ethoxy)-pyrid-3'-yl]-7α-azabicyclo[2.2.1]heptane], the ED50 (NMRI male mice; [3]) was 3.5 mg/kg.

With `COc1ccc([C@H]2C[C@H]3CC[C@@H]2N3)c(OC)c1` (racemic) [Example 48, (±)-endo-2β-[1',3'-Di-(methoxy)-phen-4'-yl]-7α-azabicyclo[2.2.1]heptane] the ED50 (NMRI male mice; [3]) was 2.9 mg/kg.

For `c1cncc([C@H]2C[C@H]3CC[C@@H]2N3)c1` (racemic) [Example 33, (±)-endo-2β-[Pyrid-3'-yl]-7α-azabicyclo[2.2.1]heptane], the ED50 (NMRI male mice; [3]) was roughly 10 mg/kg.

For `COc1ccc([C@H]2C[C@H]3CC[C@@H]2N3)cn1` (racemic) [Example 26, (±)-endo-2β-[6'-(Methoxy)-pyrid-3'-yl]-7α-azabicyclo[2.2.1]heptane], the ED50 (NMRI male mice; [3]) was 3.1 mg/kg.

For `Clc1ccc([C@H]2C[C@H]3CC[C@@H]2N3)cn1` (racemic) [Example 6, Epi-epibatidine], the lethality in mice (mice [2]) was “does not destroy mice”, the “ID50 Pretreatment” value (mice [1]; mouse, in vivo) was 3.2 mg/kg s.c and the “ID50 Without pretreatment” value (mice [1]; mouse, in vivo) was 2.6 mg/kg s.c. For the same compound, the “antagonism of the antinociception by naloxone” value (mice [1]; mouse, in vivo) was “inactive”, the ED50 (NMRI male mice; mouse, in vivo) was 0.7 mg/kg s.c and the “analgesic potency, times stronger than that of codeine” value (NMRI male mice; mouse, in vivo) was 13 times. For the same compound, the “analgesic potency, times stronger than that of morphine” value (NMRI male mice; mouse, in vivo) was 4 times.

`Clc1ccc([C@H]2C[C@H]3CC[C@@H]2N3)cc1` (racemic) [Example 19, (±)-endo-2β-[1'-(Chloro)-phen-4'-yl]-7α-azabicyclo[2.2.1]heptane] gave an ED50 (NMRI male mice; [3]) of 6.3 mg/kg.
